According to patent US6245758A, “Methods of use for peroxynitrite decomposition catalysts, pharmaceutical compositions therefor” (priority 1996, dated 2001):

Key:
[1] = tested on: RAW 264.7 cells; assay: Cell protection assay, Alamar Blue viability after peroxynitrite challenge; assay type: cell-based, murine; settings: for protection of cells from PN-mediated injury: PN 500 micromolar, RAW cells, FIG. 9 (H2 TMPyP and ZnTMPyP: data not shown)
Method: FIG. 8: Comparison of Ni and Fe Catalyst Protection of RAW Cells from PN(peroxynitrite)-mediated Injury. RAW 264.7 cells were plated at approximately 2×10^5 per well of a 96-well plate. […] Each condition represents the mean of 4 wells ±sem.
FIG. 9: Protection from PN-mediated RAW Cell Injury by Fe Catalysts. Cells were treated with 500 micromolar PN in the presence or the absence of the following catalysts: FeTMPyP, FeTMPS, FeTPPS. Cell viability was monitored as described in the text and figure legends 1, 2 and 3. Values represent the mean of 4 determinations ±sem.
Protocol for Cell Protection Assays using Peroxynitrite Decomposition Catalysts: A cell viability assay was established to rapidly assess the efficacy of peroxynitrite(PN) catalysts in protecting cells from PN25 mediated injury and death. The peroxynitrite challenge consisted of a pulse of synthetic PN added exogenously to cells. In order to better assess the efficacy of PN catalysts in protecting cells from PN-mediated damage, a quantity of peroxynitrite(in 50 mM NaOH) determined to cause maximal injury(100%) was added as an exogenous pulse to each well of cells in the presence or absence of catalyst. The NaOH vehicle was not toxic by itself.
Cells(RAW 264.7 cells or P815 mastocytoma cells; American Type Culture Collection, Rockville, Md.) were plated to confluence on 96-well tissue culture plates. Each well is washed twice with Dulbecco's phosphate buffered saline(DPBS; GIBCO BRL, Grand Island, N.Y.) to remove protein and other serum components which might react with the exogenous peroxynitrite. To each well is then added 200 μl of DPBS. PN is next placed into separate wells at increasing concentrations and cell viability monitored. The dose at which maximal cell death is attained is then utilized for the catalyst protection assessment.
Phosphate-buffered saline (200 uL) containing increasing concentrations of catalyst is next placed into individual wells of cells. The maximal dose of PN is subsequently administered to all wells of cells. After 15 minutes, the medium is removed from each well and the cells are either allowed to recover overnight in Earles minimum essential medium without phenol red and supplemented with 10% fetal bovine serum or alternatively the plate of cells is assayed that day for mitochondrial integrity using the Alamar Blue viability assay(Alamar Biosciences, Inc.; Sacramento, Calif.). In either case, cells are incubated at 37° C. in 5% CO2.
Cell injury is measured as follows. Briefly, 10% Alamar Blue(v/v) in Earles MEM with 10% FBS is added to each well of cells for 1-2h. Cell metabolism of the dye generates a fluorescent product which is directly related to the number of viable cells. Moreover, the production of the fluorescent metabolite is linear for over 2 h. The amount of fluorescent product in 100 μl of conditioned medium from each well of cells is then measured with an IDEXX fluorescent plate reader (gain setting of 1%) at an emission wavelength of 575 nm after exciting at 545 nm. Viability is either given as absolute fluorescent units or as a percent of the value obtained for untreated cells(100%).

[2] = tested on: rat jejunum; assay: Histological examination of jejunal tissues after LPS; assay type: in vivo; settings: 30 mg/kg i.v.
[3] = tested on: human aortic endothelial cells; assay: Endothelial cell injury assay (51Cr release), neutrophil-mediated; assay type: cell-based; settings: 2 h; TNF/C5a-activated neutrophils; FIG. 7
Method: Peroxynitrite catalyst, Fe(TMPyP), was added to neutrophils in the cell injury assay immediately before activation by TNF/C5a. After 2 h, the amount of specific cell injury was assessed by the amount of radiolabel released into the medium. Values represent the average of three replicas +/-SEM. *p<0.01 vs. 0 uM control by Dunnett's t Test.
[…]: Human recombinant tumor necrosis factor-alpha (TNF-a) was obtained from Genzyme Corporation, Cambridge, MA. Human recombinant complement C5a and L-arginine (L-arg) was purchased from Sigma Chemical Company, St. Louis, Mo. Authentic peroxynitrite in 50 mM NaOH was prepared as described above.
Preparation of Neutrophils: Human neutrophils were isolated from peripheral blood of healthy donors (Look, D. C., Rapp, S. R., Keller, B. T., and Holtzman, M. J. Am. J. Physiol., 263, L79-L87 [1992]). […]
Endothelial Cell Injury Assays: The cytotoxic effects of stimulated neutrophils or peroxynitrite on endothelial cells was determined using a ^51 Cr-release assay as described by Moldow (Moldow et. al. Methods Enzymol., 105, 378-385, [1984]). […]
^51 Cr release was determined by aspiration of the supernatant from each well (soluble fraction). […] Both fractions were analyzed by gamma scintillation spectrometry. Results were expressed as percent ^51 Cr release as follows: % release=cpm (soluble+nonadherent/total cpm per well)×100. […]

SMILES	protection of cells from PN-mediated injury [1]	LPS-induced jejunal damage (histology) [2]	protection of RAW 264.7 cells from PN-mediated injury ([1]; PN 360 micromolar, Alamar Blue, FIG. 8)	inhibition of neutrophil-mediated injury to endothelial cells [3]
CC(=O)[O-].Cc1c(-c2c3nc(c(-c4c(C)c(S(=O)(=O)[O-])c(C)c(S(=O)(=O)[O-])c4C)c4ccc([n-]4)c(-c4c(C)c(S(=O)(=O)[O-])c(C)c(S(=O)(=O)[O-])c4C)c4nc(c(-c5c(C)c(S(=O)(=O)[O-])c(C)c(S(=O)(=O)[O-])c5C)c5ccc2[n-]5)C=C4)C=C3)c(C)c(S(=O)(=O)[O-])c(C)c1S(=O)(=O)[O-].[Fe+3].[Na+].[Na+].[Na+].[Na+].[Na+].[Na+].[Na+].[Na+] [Fe(III)TMPS, Acetato-5,10,15,20-tetrakis(3,5-disulfonatomesityl)porphyrin Iron (III) octasodium salt]	significant protection of cells	LPS-induced damage was less severe	–	–
CC(=O)[O-].C[n+]1ccc(-c2c3nc(c(-c4cc[n+](C)cc4)c4ccc([n-]4)c(-c4cc[n+](C)cc4)c4nc(c(-c5cc[n+](C)cc5)c5ccc2[n-]5)C=C4)C=C3)cc1.Cc1ccc(S(=O)(=O)[O-])cc1.Cc1ccc(S(=O)(=O)[O-])cc1.Cc1ccc(S(=O)(=O)[O-])cc1.Cc1ccc(S(=O)(=O)[O-])cc1.[Fe+3] [Fe(III)TMPyP, Acetato (5,10,15,20-tetrakis(N-methyl-4-pyridyl)porphinato) iron (III) tetra-tosylate]	significant protection of cells	LPS-induced damage was less severe	total protection from PN-mediated injury	Inhibition of neutrophil-mediated injury to human aortic endothelial cells
